Patent US4368203A, “Antibiotics and derivatives thereof having β-lactamase inhibitory activity and production thereof” (priority 1977, dated 1983)
Values after ≈ are worked out from the molar mass of the structure shown.

Key:
Citrobacter freundii E-9 = experiment: Potentiating and synergistic effect, pulp disc inhibition zone on agar plate; format: cell-based; details: Table 6, disc 20 μl, PS-6 240 μg/ml, reference antibiotics 10,000 μg/ml
Method: (§1) 10 ml of 2.5 folds diluted nutrient agar (pH 7.0) containing 50 μg/ml of penicillin G or cephaloridine was seeded with the β-lactamase producing and β-lactam-resistant microorganisms and poured in a 9 cm Petri dish to provide the bio-assay agar plate. On this assay plate, 8 mm of pulp discs each containing 20 μl of antibiotic PS-6 solution at the concentration of 240 μg/ml were placed and incubated at 35° C. for 18 hours before reading the inhibition zones. A control assay plate was similarly prepared without penicillin G or cephaloridine. As reference antibiotics, 10,000 μg/ml of penicillin G or 20 μl of cephaloridine were disc-assayed under the same conditions.

Serratia marcescens S-18 = experiment: as above; format: cell-based; details: Table 6, disc 20 μl, PS-6 240 μg/ml, reference antibiotics 10,000 μg/ml
Method: as §1

[1] = molecular target: T1, Exo-penicillinase of Bacillus licheniformis 749/C (ATCC 25972) (Bacillus licheniformis, UniProt P00808); experiment: Susceptibility to beta-lactamase as enzymic substrate; format: biochemical; details: 15 minutes, 30° C., PS-6 3.3 μg/ml, optical density at 301 nm
T1 construct: made in house; host or cells: Bacillus licheniformis 749/C (ATCC 25972)
T1 sequence (P00808 43-307): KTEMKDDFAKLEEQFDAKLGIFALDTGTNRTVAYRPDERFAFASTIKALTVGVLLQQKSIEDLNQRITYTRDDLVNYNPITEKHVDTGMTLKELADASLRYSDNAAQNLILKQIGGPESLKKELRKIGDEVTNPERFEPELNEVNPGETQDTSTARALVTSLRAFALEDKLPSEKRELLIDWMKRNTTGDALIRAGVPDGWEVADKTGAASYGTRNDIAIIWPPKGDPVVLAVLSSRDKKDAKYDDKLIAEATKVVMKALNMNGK
Method: (a) Exo-penicillinase of Bacillus licheniformis 749/C (ATCC 25972). Purified by cephalexin-Sepharose 4B (Pharmacia Fine Chemicals AB) affinity column chromatography. The potency of this enzyme preparation was 16,600 units/ml. when the hydrolysis of potassium penicillin G was measured by iodometry at 30° C. in M/10, pH 6.8, phosphate buffer. One unit of penicillinase means the amount of enzyme that can hydrolyze 1 micromole of penicillin G for 60 minutes at 30° C. with a pH 6.8.
Time course of the hydrolysis was traced at 30° C. by determining the decrease in optical density at 301 nm which corresponds specifically to the concentration of antibiotic PS-6. As described in Japanese Patent Application No. 94651/77, the antibiotic PS-5 sodium salt preparation gave a E1 cm^1% value of 267.5 at the λmax of 301 nm. If this preparation contained no water of crystallization, its epsilon value would be 8560.
As 5% of the initial optical density of antibiotic PS-5 at 301 nm remained even after the complete decomposition with hydroxylamine or beta-lactamase, the differential optical density of this substrate at 301 nm was supposed to be Δε=8132. This was supposed to be applicable to the antibiotic PS-6, and the following calculation was carried out.
(a) Exo-penicillinase of Bacillus licheniformis 749/C.

[2] = tested on: Klebsiella pneumoniae K-2; experiment: MIC, broth dilution method; details: Klebsiella pneumoniae, K2, 20 h, read-out: Minimum inhibitory concentration
[3] = agar containing 50 μg/ml of cephaloridine
[4] = agar containing 50 μg/ml of penicillin G

CC(=O)NCCSC1=C(C(=O)O)N2C(=O)C(C(C)C)C2C1 (centres unmarked) [Antibiotic PS-6]
zone of inhibition at 240 µg/mL (Citrobacter freundii E-9; Citrobacter freundii, E9, 18 h, plate without penicillin G or cephaloridine, read-out: Inhibition zone, Control): 22 mm
Inhibition zone, with cephaloridine (Citrobacter freundii E-9; [3]): 25.0 mm
Inhibition zone, with penicillin G (Citrobacter freundii E-9; [4]): 23.0 mm
zone of inhibition at 240 µg/mL (Serratia marcescens S-18; Serratia marcescens, S18, 18 h, plate without penicillin G or cephaloridine, read-out: Inhibition zone, Control): 20 mm
Inhibition zone, with cephaloridine (Serratia marcescens S-18; [3]): 26.0 mm
Inhibition zone, with penicillin G (Serratia marcescens S-18; [4]): 22.0 mm
Hydrolysis by the beta-lactamase [1]: without a substantial hydrolysis
MIC [2]: 12.5 µg/mL (≈ 40 µM)
